Measured values as given in ChEMBL document CHEMBL1201862, “PubChem BioAssay data set” (2004).
Where a name gives a salt, the structure may show the parent alone.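 1) Cells in 96-well plates. 2) Compound, 48 h, 5 concentrations. 3) Linear interpolation between surrounding doses. 4) Unreached endpoint = highest concentration. GI50: concentration for 50% inhibition of growth.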 Calls of active or inactive are those of the source. No stated cut-off is given here; in the data, active = GI50 up to about 1.1 µM and inactive = higher. Square brackets hold non-standard residues; d marks the D form. Peptide text beside a SMILES is read from it.

Tests used:
Assay in all cases: NCI tumour cell line growth inhibition, 48 h
HCT-116 = system: HCT-116
DU-145 = system: DU-145
NCI-H226 = system: NCI-H226
EKVX = system: EKVX
K562 = system: K562
MDA-MB-231 = system: MDA-MB-231
Malme-3M = system: Malme-3M
OVCAR-5 = system: OVCAR-5
RXF 393 = system: RXF 393
OVCAR-4 = system: OVCAR-4
SN12C = system: SN12C
HOP-62 = system: HOP-62
RPMI-8226 = system: RPMI-8226
NCI-H23 = system: NCI-H23
SK-OV-3 = system: SK-OV-3
NCI/ADR-RES = system: NCI/ADR-RES
SNB-19 = system: SNB-19
CCRF-CEM = system: CCRF-CEM
SW-620 = system: SW-620
HL-60 = system: HL-60

Row | SMILES | GI50 (HCT-116) | GI50 (DU-145) | GI50 (NCI-H226) | GI50 (EKVX) | GI50 (K562) | GI50 (MDA-MB-231) | GI50 (Malme-3M) | GI50 (OVCAR-5) | GI50 (RXF 393) | GI50 (OVCAR-4) | GI50 (SN12C) | GI50 (HOP-62) | GI50 (RPMI-8226) | GI50 (NCI-H23) | GI50 (SK-OV-3) | GI50 (NCI/ADR-RES) | GI50 (SNB-19) | GI50 (CCRF-CEM) | GI50 (SW-620) | GI50 (HL-60)
1 | Nc1nc(N)c(Cn2ccnc2)c(O)n1 | > 100 µM (inactive) | > 100 µM (inactive) | > 100 µM (inactive) | > 100 µM (inactive) | 0.049 µM (active) | > 100 µM (inactive) | > 100 µM (inactive) | > 100 µM (inactive) | > 100 µM (inactive) | > 100 µM (inactive) | 5.15 µM (inactive) | > 100 µM (inactive) | > 100 µM (inactive) | > 100 µM (inactive) | > 100 µM (inactive) | > 100 µM (inactive) | > 100 µM (inactive) | – | – | –
2 | Cc1nc2ccccc2c(=O)n1-c1n[nH]c2ccccc12 | > 100 µM (inactive) | > 100 µM (inactive) | 80.5 µM (inactive) | > 100 µM (inactive) | > 100 µM (inactive) | > 100 µM (inactive) | > 100 µM (inactive) | > 100 µM (inactive) | > 100 µM (inactive) | > 100 µM (inactive) | > 100 µM (inactive) | > 100 µM (inactive) | > 100 µM (inactive) | > 100 µM (inactive) | – | > 100 µM (inactive) | > 100 µM (inactive) | > 100 µM (inactive) | > 100 µM (inactive) | –
3 | O=[N+]([O-])/C=C/COCc1cc2c(cc1Br)OCO2 | 17.6 µM (inactive) | 18.9 µM (inactive) | – | 20.1 µM (inactive) | 58.2 µM (inactive) | 18.9 µM (inactive) | – | 16.7 µM (inactive) | 16.7 µM (inactive) | 18.6 µM (inactive) | 18.6 µM (inactive) | 20.1 µM (inactive) | 39.5 µM (inactive) | – | 43.1 µM (inactive) | 21.1 µM (inactive) | – | 1.15 µM (inactive) | 16 µM (inactive) | –
4 | O=[N+]([O-])c1ccc2sc(/C=N/c3ccccn3)cc2c1 | 38.4 µM (inactive) | 77.6 µM (inactive) | – | 69 µM (inactive) | 26.8 µM (inactive) | 84.1 µM (inactive) | > 100 µM (inactive) | > 100 µM (inactive) | > 100 µM (inactive) | – | 88.7 µM (inactive) | > 100 µM (inactive) | 22.6 µM (inactive) | 98.2 µM (inactive) | > 100 µM (inactive) | 97.7 µM (inactive) | > 100 µM (inactive) | 33.8 µM (inactive) | 21.7 µM (inactive) | 28.5 µM (inactive)
5 | O=C(Cn1c(=O)oc2ccc(C(=O)c3ccccc3Cl)cc21)c1ccc([N+](=O)[O-])cc1 | 17.8 µM (inactive) | 42 µM (inactive) | 34.2 µM (inactive) | 24.2 µM (inactive) | 14.9 µM (inactive) | 20.8 µM (inactive) | 25.5 µM (inactive) | 47.6 µM (inactive) | – | 10.9 µM (inactive) | 24.5 µM (inactive) | 25.1 µM (inactive) | 9.51 µM (inactive) | 25.4 µM (inactive) | 21.9 µM (inactive) | 22.6 µM (inactive) | 40.5 µM (inactive) | 4.29 µM (inactive) | 26.8 µM (inactive) | 11.2 µM (inactive)
6 | COc1cc2c[n+](C)c3c4cc(OC)c(OC)cc4c(OC)cc3c2cc1OC | 2.92 µM (inactive) | 8.45 µM (inactive) | 1.36 µM (inactive) | > 74.1 µM (inactive) | 4.03 µM (inactive) | 0.53 µM (active) | 2.06 µM (inactive) | > 100 µM (inactive) | 8.83 µM (inactive) | 8.02 µM (inactive) | 0.188 µM (active) | 16.4 µM (inactive) | 16.4 µM (inactive) | 5.58 µM (inactive) | 42.2 µM (inactive) | > 100 µM (inactive) | 1.03 µM (active) | 6.1 µM (inactive) | 7.69 µM (inactive) | –
7 | Cc1cc(O)c(C(O)c2ccccn2)cc1O (centres undefined) | 16.7 µM (inactive) | 37.9 µM (inactive) | > 10 µM (inactive) | 18.2 µM (inactive) | 3.77 µM (inactive) | 17.5 µM (inactive) | 20.7 µM (inactive) | 17.2 µM (inactive) | 16.3 µM (inactive) | – | 18.7 µM (inactive) | 89.1 µM (inactive) | 20.4 µM (inactive) | 18 µM (inactive) | – | 27.5 µM (inactive) | 55.3 µM (inactive) | 3.21 µM (inactive) | 21.1 µM (inactive) | 11.1 µM (inactive)
8 | COC(=O)c1c(O)ccc2c1c1c(n2CCc2ccccc2)C(=O)c2ccccc2C1 | 15.3 µM (inactive) | 31.8 µM (inactive) | 16.3 µM (inactive) | – | 37.6 µM (inactive) | 19.5 µM (inactive) | 32.3 µM (inactive) | – | 13.3 µM (inactive) | 10.7 µM (inactive) | 14.7 µM (inactive) | 21.2 µM (inactive) | 11.7 µM (inactive) | 20.7 µM (inactive) | 22.5 µM (inactive) | 19.7 µM (inactive) | 24.8 µM (inactive) | 21.4 µM (inactive) | 30.1 µM (inactive) | 28.9 µM (inactive)
9 | CNN1C(=O)c2c(N)c(C#N)c(-c3ccccc3)c(-c3ccccc3)c2C1=O | 44.1 µM (inactive) | > 100 µM (inactive) | > 100 µM (inactive) | > 100 µM (inactive) | 48.9 µM (inactive) | > 100 µM (inactive) | > 100 µM (inactive) | 30.3 µM (inactive) | 82.8 µM (inactive) | > 100 µM (inactive) | > 100 µM (inactive) | – | 24.7 µM (inactive) | – | – | 82.2 µM (inactive) | > 100 µM (inactive) | 41.1 µM (inactive) | > 100 µM (inactive) | 30.5 µM (inactive)
10 | O=C(CN1C(=O)c2ccccc2C1=O)OCC1CCCN2CCCCC12 (centres undefined) | > 100 µM (inactive) | > 100 µM (inactive) | > 100 µM (inactive) | > 100 µM (inactive) | > 100 µM (inactive) | > 100 µM (inactive) | > 100 µM (inactive) | – | > 100 µM (inactive) | > 100 µM (inactive) | > 100 µM (inactive) | – | > 100 µM (inactive) | > 100 µM (inactive) | > 100 µM (inactive) | > 100 µM (inactive) | > 100 µM (inactive) | > 100 µM (inactive) | > 100 µM (inactive) | > 100 µM (inactive)
11 | COc1ccccc1N1C(=O)/C(=C\c2cc(OC)c(OC)c(OC)c2)S(=O)(=O)C1c1ccccc1 (centres undefined) | 23.8 µM (inactive) | 62.1 µM (inactive) | 44.8 µM (inactive) | – | 28.6 µM (inactive) | 52.6 µM (inactive) | 26.9 µM (inactive) | – | 10.6 µM (inactive) | 39.9 µM (inactive) | 73.6 µM (inactive) | 37.7 µM (inactive) | 20.5 µM (inactive) | 33.9 µM (inactive) | 20.6 µM (inactive) | 22.2 µM (inactive) | 32.6 µM (inactive) | 15.6 µM (inactive) | 30 µM (inactive) | –
12 | NC(=O)c1c[se]c(C2OC(CO)C(O)C2O)n1 (centres undefined) | 3.45 µM (inactive) | 31.8 µM (inactive) | > 58.6 µM (inactive) | > 79.1 µM (inactive) | 0.627 µM (active) | 5.01 µM (inactive) | > 100 µM (inactive) | 31 µM (inactive) | – | 3.99 µM (inactive) | > 84.7 µM (inactive) | 10.2 µM (inactive) | 6.43 µM (inactive) | 11 µM (inactive) | > 29 µM (inactive) | 9.16 µM (inactive) | 6.35 µM (inactive) | 0.875 µM (active) | 1.47 µM (inactive) | 0.984 µM (active)
13 | N=C(N)NCCC[C@H]1NC(=O)[C@@H](CCC(=O)O)NC(=O)[C@@H](CC(=O)O)NC(=O)[C@@H](CCC(=O)O)NC(=O)[C@H](Cc2c[nH]c3ccccc23)NC1=O (cyclo(W[dE][dD][dE][dR])) | > 7.5 µM (inactive) | > 7.5 µM (inactive) | > 7.5 µM (inactive) | > 7.5 µM (inactive) | > 7.5 µM (inactive) | > 7.5 µM (inactive) | – | > 7.5 µM (inactive) | > 7.5 µM (inactive) | > 7.5 µM (inactive) | > 7.5 µM (inactive) | > 7.5 µM (inactive) | > 7.5 µM (inactive) | > 7.5 µM (inactive) | > 7.5 µM (inactive) | > 7.5 µM (inactive) | > 7.5 µM (inactive) | > 7.5 µM (inactive) | > 7.5 µM (inactive) | > 7.5 µM (inactive)
14 | NCCCCN [PUTRESCINE HYDROCHLORIDE] | > 100 µM (inactive) | > 100 µM (inactive) | > 100 µM (inactive) | > 100 µM (inactive) | > 100 µM (inactive) | > 100 µM (inactive) | > 100 µM (inactive) | > 100 µM (inactive) | > 100 µM (inactive) | 19.4 µM (inactive) | – | > 100 µM (inactive) | – | > 100 µM (inactive) | > 100 µM (inactive) | > 100 µM (inactive) | > 100 µM (inactive) | > 100 µM (inactive) | > 100 µM (inactive) | > 100 µM (inactive)
15 | Cc1cn([C@H]2C[C@H](N=[N+]=[N-])[C@@H](CO)O2)c(=O)[nH]c1=O [ZIDOVUDINE] | 88.5 µM (inactive) | 420 µM (inactive) | > 100 µM (inactive) | > 100 µM (inactive) | 177 µM (inactive) | > 100 µM (inactive) | > 100 µM (inactive) | > 84.5 µM (inactive) | 89.5 µM (inactive) | > 85.1 µM (inactive) | > 100 µM (inactive) | > 100 µM (inactive) | 48.3 µM (inactive) | > 100 µM (inactive) | > 100 µM (inactive) | > 96.4 µM (inactive) | – | 288 µM (inactive) | > 100 µM (inactive) | 646 µM (inactive)
